Measured values published in patent US10123983B2, “DNA methyltransferases for the treatment and prevention of arthritis” (Washington University, priority 2015, dated 2018).

Experiments:
[1] = system: human primary articular chondrocytes; test: IL-1β treatment of human primary articular chondrocytes, gene and protein expression; format: cell-based
Description: FIG. 1A, FIG. 1B, FIG. 1C, FIG. 1D, FIG. 1E, FIG. 1F, FIG. 1G, FIG. 1H, FIG. 1I, FIG. 1J, FIG. 1K, FIG. 1L and FIG. 1M depict images, graphs and an immunoblot showing Dnmt3b expression in murine and human knee joint cartilage. (FIG. 1A, FIG. 1B) Dnmt3a is not expressed in chondrocytes from 3 mo WT articular cartilage [(FIG. 1B) represents a magnified image of the boxed region in (FIG. 1A)]. (FIG. 1C) Dnmt3a expression in pancreas tissue (positive control). (FIG. 1D, FIG. 1E, FIG. 1F) Robust expression of Dnmt3b in chondrocytes of 3 mo WT articular cartilage and lower expression in underlying growth plate cartilage; [(FIG. 1E) represents a magnified image of the dashed boxed area of articular cartilage in (FIG. 1D); (FIG. 1F) represents a magnified image of the solid boxed area of growth plate cartilage in (FIG. 1D)]. Dnmt3b expression is also shown in: (FIG. 1G) 3 mo versus 27 mo WT murine knee articular cartilage; (FIG. 1H) 14 wk old murine articular cartilage following MLI surgery compared to cartilage from sham control knees; (FIG. 1I) 14 wk murine articular cartilage in mice fed a high fat diet (HFD) compared to controls (Ctrl) fed a normal diet. (FIG. 1J) Two representative images showing DNMT3B expression in human healthy articular cartilage or osteoarthritic cartilage tissue sections. (FIG. 1K) Reduced DNMT3B expression in human primary OA chondrocytes compared to healthy chondrocytes). […] All scale bars, 100 μm.
FIG. 3A and FIG. 3B depict graphs showing altered anabolic and catabolic gene expression in IL-1β-treated human primary chondrocytes. Reduced COL2A1 (FIG. 3A) and increased MMP13 (FIG. 3B) expression following IL-1β treatment (48 h) of human primary articular chondrocytes isolated from total knee replacement surgeries.
Full thickness sections of human articular cartilage were removed from the femoral condyles and tibial plateaus of specimens obtained following total knee replacement surgery, diced into 2 mm cubes and digested in sterile spinner flasks for 90 min at 37° C. in pronase digestion buffer [DMEM/F12 (Gibco); 5% FBS (Atlanta Biologicals), 2% penicillin/streptomycin (Gibco) and 0.4% pronase (Roche)]. Following washes in HBSS (Gibco), tissue was further digested in collagenase digestion buffer at 37° C. [DMEM/F12; 5% FBS; 2% penicillin/streptomycin; 0.035% collagenase P (Roche)] for 14-16 hr. Cells were collected, filtered through 70 μm cell strainers (VWR) and plated at a density of 100,000 cells/cm^2. After 24 hr, chondrocytes were treated with IL-1β (10 ng/ml; Gibco) for 48 hr. Total RNA was collected using the Total RNA prep kit (Norgen Biotek) and cDNA was synthesized using Superscript RT II (Life Technologies).
Real-time PCR and western blot. […]

[2] = system: murine WT primary articular chondrocytes; test: IL-1β induction of murine WT primary articular chondrocytes, Dnmt3b expression; format: cell-based, mouse; details: IL-1β induction 48 h
Description: (§1) FIG. 4A, FIG. 4B, FIG. 4C, FIG. 4D, FIG. 4E and FIG. 4F depict sequences, graphs and a nucleic acid gel and immunoblot showing IL-1β regulation of Dnmt3b is mediated in part by NF-κB. (FIG. 4A) Sequence alignment and conservation of an NF-κB binding site (red) in the promoter region of the Dnmt3b gene of different species. Mouse—SEQ ID NO:1; Human—SEQ ID NO:2; Dog; SEQ ID NO:3; Horse—SEQ ID NO:4. […] Reduced luciferase activity is attenuated when ATDC-5 cells were transfected with a reporter plasmid containing a mutated NF-κB binding site ([…]; SEQ ID NO:5). […] (FIG. 4E, FIG. 4F) Dnmt3b mRNA and protein levels were reduced in murine WT primary articular chondrocytes (extracted from 3 mo murine knee joints) following IL-1β induction (48 h).
Real-time PCR and western blot. RNA was isolated from ATDC-5 chondrocytes or primary articular chondrocytes using RNeasy Mini kit (Qiagen). cDNA synthesis and real-time RT-PCR was performed according to manufacturer's instructions. Western blot analyses were conducted on the protein of lysates from either ATDC-5 cells or primary (murine or human) articular chondrocytes. […]

[3] = system: primary articular chondrocytes; test: Cytokine-induced chondrocyte hypertrophy measured by ALP activity; format: cell-based, mouse; details: cytokine treatment
Method: FIG. 24 depicts Dnmt3b gain-of-function attenuates IL-1β-induced chondrocyte hypertrophy. Primary ACs from 2 mo Dnmt3b GOF mice were treated with vehicle or doxycycline (10 μg/ml) for 24 hr. Medium without or with IL-1β (1 ng/ml) was added for 48 hr and ALP staining performed using NBT/BCIP substrate solution.
Hypertrophic characteristics, as measured by ALP activity, were induced in primary articular chondrocytes by treatment with either IL-1β or TNF-α. Dnmt3b GOF was induced by transfecting a plasmid expressing full-length Flag-tagged Dnmt3b cDNA. Western blot confirmed protein over-expression (data not shown). […] Similar results were shown in the TNF-α experiment (results not shown)

[4] = system: Dnmt3b promoter; test: Dnmt3b promoter luciferase assay; format: cell-based, mouse; details: ATDC-5 cells, IL-1β 1 ng/ml, 24 h, versus untreated control
Description: as §1
Dnmt3b promoter luciferase assay. ATDC-5 cells were transfected with a pGL4 luciferase plasmid containing cDNA encoding 1 kb of the murine Dnmt3b promoter using X-tremeGENE transfection reagents (Roche, #06366236001). A Dnmt3b promoter construct containing mutations in the predicted NFκB binding site was also transfected into an additional set of ATDC-5 cells. All transfected cells were then treated with IL-1β (1 ng/ml) for 24 h before performing the luciferase assay.

[5] = rodents, within the proposed dosage range; literature study (99); cited from earlier work
[6] = system: Dnmt3b LOF chondrocytes; test: Vigabatrin treatment of Dnmt3b LOF primary articular chondrocytes, hypertrophic marker expression; format: cell-based, mouse
Method: FIG. 23A, FIG. 23B and FIG. 23C depict ablation of Dnmt3b in articular chondrocytes (ACs). Primary Acs from Dnmt3b^f/f mice were infected with Ad5-Cre or Ad-GFP for 48 hr and cultured for a further 48 hr with or without vigabatrin (500μM).
To determine if this effect is dependent upon increased Abat expression, experiments were performed using vigabatrin to inhibit Abat activity in articular chondrocytes. […] Work will comprehensively investigate the role of Abat in controlling both metabolism and hypertrophic/catabolic responses in articular chondrocytes, and define its role in the development of OA.

[7] = system: WT murine PACs; test: Mitochondria stress test (Seahorse XF Extracellular Flux Analyzer) after succinate treatment; format: cell-based, mouse; details: 1 mM diethyl succinate, 48 h
Method: FIG. 13A, FIG. 13B, FIG. 13C, FIG. 13D, FIG. 13E, FIG. 13F, FIG. 13G, FIG. 13H, FIG. 13I, FIG. 13J, FIG. 13K, FIG. 13L, FIG. 13M and FIG. 13N depict graphs showing mitochondria function and cellular homeostasis in Dnmt3b LOF chondrocytes. Primary articular chondrocytes were isolated from 2 mo Dnmt3b^f/f mice and infected with Ad5-Cre (Dnmt3b LOF) or Ad5-GFP (Ctrl) for 48 h. (FIG. 13A, FIG. 13B, FIG. 13C) Mitochondrial respiration was measured by the Seahorse XF Extracellular Flux Analyzer. Basal respiration and maximal respiration, as measured by the oxygen consumption rate (OCR) are shown. (FIG. 13D, FIG. 13E, FIG. 13F) TCA metabolite (succinate, fumarate) and NADH analysis by HPLC-MS. (FIG. 13G, FIG. 13H, FIG. 13I) Mitochondrial metabolism analysis was measured in 2 mo WT cells treated with either 1 mM diethyl succinate or vehicle for 48 h by the Seahorse XF Extracellular Flux Analyzer. (FIG. 13J) Chondrocyte gene expression in response to succinate treatment was analyzed by qPCR. (FIG. 13K, FIG. 13L, FIG. 13M) Mitochondrial respiration analysis in BMP-2-treated 2 mo WT chondrocytes in the presence or absence antimycin A+rotenone for 48 h. […]
Metabolite analysis and mitochondria stress test. […] Metabolites were analyzed by LC-MS/MS as previously described^60. […] At the end of the assays, protein concentrations were measured for normalization.

[8] = system: Primary articular chondrocytes from 2 mo WT mice; test: Succinate concentration assay; format: cell-based, mouse; details: 1 mM diethyl succinate, 48 h
Method: FIG. 15 depicts a graph showing cellular succinate levels in murine chondrocytes. Primary articular chondrocytes from 2 mo WT mice were treated with 1 mM diethyl succinate or vehicle for 48 h.
Succinate concentration assay. Primary articular chondrocytes isolated from 2 mo WT mice were treated with vehicle or diethylsuccinate (1 mM) for 48 h. Intracellular succinate concentration was measured using the succinate colorimetric assay kit following the manufacturer's instruction (Sigma, #MAK184-1KT).

[9] = system: WT murine PACs; test: Chondrocyte gene expression in response to succinate treatment (qPCR); format: cell-based, mouse
Method: FIG. 13A, FIG. 13B, FIG. 13C, FIG. 13D, FIG. 13E, FIG. 13F, FIG. 13G, FIG. 13H, FIG. 13I, FIG. 13J, FIG. 13K, FIG. 13L, FIG. 13M and FIG. 13N depict graphs showing mitochondria function and cellular homeostasis in Dnmt3b LOF chondrocytes. Primary articular chondrocytes were isolated from 2 mo Dnmt3b^f/f mice and infected with Ad5-Cre (Dnmt3b LOF) or Ad5-GFP (Ctrl) for 48 h. (FIG. 13A, FIG. 13B, FIG. 13C) Mitochondrial respiration was measured by the Seahorse XF Extracellular Flux Analyzer. Basal respiration and maximal respiration, as measured by the oxygen consumption rate (OCR) are shown. (FIG. 13D, FIG. 13E, FIG. 13F) TCA metabolite (succinate, fumarate) and NADH analysis by HPLC-MS. (FIG. 13G, FIG. 13H, FIG. 13I) Mitochondrial metabolism analysis was measured in 2 mo WT cells treated with either 1 mM diethyl succinate or vehicle for 48 h by the Seahorse XF Extracellular Flux Analyzer. (FIG. 13J) Chondrocyte gene expression in response to succinate treatment was analyzed by qPCR. (FIG. 13K, FIG. 13L, FIG. 13M) Mitochondrial respiration analysis in BMP-2-treated 2 mo WT chondrocytes in the presence or absence antimycin A+rotenone for 48 h. (FIG. 13N) Analysis of chondrocyte gene expression in response to BMP-2 treatment+/−antimycin A+rotentone (0.1 μM).
Real-time PCR and western blot. RNA was isolated from ATDC-5 chondrocytes or primary articular chondrocytes using RNeasy Mini kit (Qiagen). cDNA synthesis and real-time RT-PCR was performed according to manufacturer's instructions. Western blot analyses were conducted on the protein of lysates from either ATDC-5 cells or primary (murine or human) articular chondrocytes. The following primary antibodies were used: pSmad1/5 (Cell Signaling technology Inc., 1:500), pSmad2 (Cell Signaling technology Inc., 1:1000), Smad1/5/8 (Cell Signaling technology Inc., 1:1000), Smad2 (Cell Signaling technology Inc., 1:1000), DNMT3A (LSBio, 1:1000), DNMT3B (LSBio, 1:1000), FLAG (Life technology, 1:1000) and β-actin (Sigma, 1:2000).

[10] = Abat inhibition with vigabatrin

Q: With IL-1β: pro-inflammatory cytokine as the molecule, how does the “DNMT3B mRNA expression” value ([1]; IL-1β 10 ng/ml, 48 hr) read?
A: Its value is “decreased”.

Q: And the DNMT3B protein expression ([1]; IL-1β 10 ng/ml, 48 hr)?
A: Its DNMT3B protein expression is “decreased”.

Q: What about the COL2A1 expression ([1]; IL-1β treatment 48 h) of the same molecule?
A: Its COL2A1 expression is “Reduced”.

Q: And the MMP13 expression ([1]; IL-1β treatment 48 h)?
A: Its MMP13 expression is “increased”.

Q: And the “Dnmt3b mRNA level” value [2]?
A: Its value is “reduced”.

Q: What about the Dnmt3b protein level [2] of the same molecule?
A: The Dnmt3b protein level was “reduced”.

Q: And the “hypertrophic characteristics, as measured by ALP activity” value [3]?
A: Its value is “induced”.

Q: And the “luciferase expression of Dnmt3b promoter reporter” value [4]?
A: The value was “Reduced luciferase expression”.

Q: What does the source list for C=CC(N)CCC(=O)O (stereo not drawn) [vigabatrin]?
A: side effects [5]: did not report any side effects; Col10a1 expression in Dnmt3b LOF chondrocytes [6, 10]: attenuates the increased expression; Mmp13 expression in Dnmt3b LOF chondrocytes [6, 10]: attenuates the increased expression; Runx2 expression in Dnmt3b LOF chondrocytes [6, 10]: attenuates the increased expression; catabolic responses in chondrocytes ([6]; in vitro administration): can block catabolic responses; hypertrophic gene expression induced by Dnmt3b LOF ([6]; vigabatrin 500μM, 48 hr, primary ACs from Dnmt3b f/f mice infected with Ad5-Cre): partially attenuated

Q: With CCOC(=O)CCC(=O)OCC [diethyl succinate] as the molecule, how does the “basal respiration (OCR)” value [7] read?
A: The value was “increased”.

Q: What about the “maximal respiration (OCR)” value [7] of the same molecule?
A: The value was “increased”.

Q: And the cellular succinate levels [8]?
A: Its cellular succinate levels is “Increased levels of cellular succinate”.

Q: And the Col2a1 expression [9]?
A: Its Col2a1 expression is “decreased”.

Q: What about the Mmp13 expression [9] of the same molecule?
A: The Mmp13 expression was “increase”.

Q: And the Runx2 expression [9]?
A: The Runx2 expression was “increase”.

Q: For TNF-α, which “hypertrophic characteristics, as measured by ALP activity” value [3] is on record?
A: The value was “induced”.
